In the CheMixHub ionic liquid set:
Several values for one entry are separate records, joined by “and”; a condition that tells them apart may be missing. Equal values may be shown once.

Assay: xn = mol fraction of the nth substance listed

CC[n+]1ccn(C)c1C.O=S(=O)([N-]S(=O)(=O)C(F)(F)F)C(F)(F)F + COC(=O)OC
viscosity [mPa·s], 101.3 kPa
Details	288.15 K	293.15 K	298.15 K	303.15 K	308.15 K	313.15 K
x1 = 0.002023	0.685	0.64	0.601	0.564	0.532	0.502
x1 = 0.003635	0.702	0.655	0.613	0.576	0.542	0.512
x1 = 0.004511	0.715	0.668	0.625	0.589	0.556	0.525
x1 = 0.006328	0.731	0.682	0.637	0.599	0.563	0.531
x1 = 0.007386	0.745	0.694	0.65	0.609	0.573	0.541
x1 = 0.008644	0.76	0.706	0.66	0.618	0.58	0.548
x1 = 0.01069	0.79	0.73	0.681	0.638	0.603	0.569
x1 = 0.01174	0.798	0.741	0.691	0.646	0.607	0.571
x1 = 0.01299	0.815	0.757	0.705	0.66	0.619	0.582
x1 = 0.01405	0.825	0.766	0.714	0.666	0.625	0.588
x1 = 0.01538	0.844	0.782	0.728	0.68	0.637	0.599
x1 = 0.01591	0.848	0.786	0.731	0.683	0.639	0.601
x1 = 0.01645	0.854	0.791	0.736	0.687	0.643	0.605
x1 = 0.01685	0.86	0.796	0.74	0.691	0.647	0.608
x1 = 0.01703	0.864	0.8	0.744	0.694	0.651	0.611
x1 = 0.02124	0.91	0.841	0.781	0.727	0.681	0.639
x1 = 0.02489	0.946	0.873	0.81	0.755	0.706	0.662
x1 = 0.02663	0.965	0.891	0.826	0.771	0.72	0.676
x1 = 0.0275	0.978	0.903	0.837	0.78	0.729	0.683
x1 = 0.03106	1.005	0.928	0.86	0.801	0.75	0.702
x1 = 0.03264	1.017	0.939	0.871	0.811	0.759	0.711
x1 = 0.03671	1.052	0.972	0.902	0.839	0.784	0.735
x1 = 0.04003	1.084	1.001	0.928	0.864	0.807	0.756
x1 = 0.04547	1.132	1.046	0.97	0.903	0.843	0.79
x1 = 0.04804	1.154	1.065	0.989	0.92	0.859	0.805
x1 = 0.05983	1.271	1.171	1.086	1.01	0.942	0.881

C[n+]1ccn(CCCCCn2cc[n+](C)c2)c1.O=S(=O)([N-]S(=O)(=O)C(F)(F)F)C(F)(F)F.O=S(=O)([N-]S(=O)(=O)C(F)(F)F)C(F)(F)F + OCCOCCOCCOCCO
viscosity, 101 kPa
Details	293.15 K	303.15 K	313.15 K	323.15 K	333.15 K
x1 = 0.3283	178.4 mPa·s	93.1 mPa·s	56.5 mPa·s	36.2 mPa·s	22.4 mPa·s
x1 = 0.55	448 mPa·s	233 mPa·s	128 mPa·s	81.7 mPa·s	54.9 mPa·s
x1 = 0.7097	627 mPa·s	316 mPa·s and 318 mPa·s	177.9 mPa·s and 180.1 mPa·s	107.7 mPa·s	67.9 mPa·s
x1 = 1	1125 mPa·s	555 mPa·s	313 mPa·s	192.3 mPa·s	123.2 mPa·s

CCCCCCCO + CCCC[n+]1ccn(C)c1.O=[N+]([O-])[O-]
100 kPa, x2 = 0
Details	viscosity [mPa·s]
293.15 K	7.03
303.15 K	5.03
313.15 K	3.71
323.15 K	2.79

NCC(=O)O + CCCCCCCCCCCC[N+](C)(C)Cc1ccccc1.[Cl-] + O
electrical conductivity [S/m], 101 kPa
Details	293.15 K	298.15 K	303.15 K	308.15 K	313.15 K
x1 = 0.0008876, x2 = 0	0.000384	0.000431	0.000492	0.000549	0.000613
x1 = 0.001759, x2 = 0	0.00074	0.000839	0.000945	0.00106	0.00118

CCCC[n+]1ccn(C)c1.N#C[S-] + O
101 kPa
Details	electrical conductivity [S/m]	viscosity [mPa·s]
298.15 K, x1 = 0.0004503	0.224	–
298.15 K, x1 = 0.0009182	0.395	–
298.15 K, x1 = 0.001853	0.716	–
298.15 K, x1 = 0.00477	1.451	–
298.15 K, x1 = 0.00776	1.952	–
298.15 K, x1 = 0.01001	2.3	–
298.15 K, x2 = 0.2007	–	33
298.15 K, x2 = 0.3169	–	25.9
298.15 K, x2 = 0.9437	4.47	–
298.15 K, x2 = 0.9626	4.02	–
298.15 K, x2 = 0.9781	3.33	–
308.15 K, x2 = 0.2007	–	22.5
318.15 K, x2 = 0.2007	–	16.2
318.15 K, x2 = 0.3169	–	13.24
318.15 K, x2 = 0.7201	–	4.66
328.15 K, x2 = 0	–	16.7
328.15 K, x2 = 0.0998	–	14.22
328.15 K, x2 = 0.6426	–	4.71
328.15 K, x2 = 0.7201	–	3.65
338.15 K, x2 = 0.3169	–	7.96
338.15 K, x2 = 0.5296	–	5.12
338.15 K, x2 = 0.7949	–	2.23
348.15 K, x2 = 0.5296	–	4.16
